Experimental data as given in US6737383B1, “Herbicidal oxadiazolidines” (priority 1999, dated 2004).

How the values were obtained:
[1] = test system: soybean; experiment: Test B pre/postemergence soybean; assay type: in vivo, Glycine max
How it was run: (§1)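 Response is a visual 0-to-10 score relative to untreated plants, where 0 means no effect and 10 means complete control, taken twelve to sixteen days after application. Treatments went onto soil at planting and onto foliage of 1- to 4-leaf plants, using a surfactant-containing non-phytotoxic solvent.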

[2] = test system: morningglory; experiment: Test B pre/postemergence morningglory; assay type: in vivo, Ipomoea hederacea
How it was run: as §1

[3] = test system: crabgrass; experiment: Test B pre/postemergence crabgrass; assay type: in vivo, Digitaria sanguinalis
How it was run: as §1

[4] = test system: velvetleaf; experiment: Test B pre/postemergence velvetleaf; assay type: in vivo, Abutilon theophrasti
How it was run: as §1

[5] = test system: bedstraw; experiment: Test B pre/postemergence bedstraw; assay type: in vivo, Galium aparine
How it was run: as §1

[6] = test system: surinam grass; experiment: Test B pre/postemergence surinam grass; assay type: in vivo, Brachiaria decumbens
How it was run: as §1

[7] = test system: blackgrass; experiment: Test B pre/postemergence blackgrass; assay type: in vivo, Alopecurus myosuroides
How it was run: as §1

[8] = test system: corn; experiment: Test B pre/postemergence corn; assay type: in vivo, Zea mays
How it was run: as §1

[9] = test system: rape; experiment: Test B pre/postemergence rape; assay type: in vivo, Brassica napus
How it was run: as §1

[10] = test system: pigweed; experiment: Test B pre/postemergence pigweed; assay type: in vivo, Amaranthus retroflexus
How it was run: as §1

[11] = test system: giant foxtail; experiment: Test B pre/postemergence giant foxtail; assay type: in vivo, Setaria faberii
How it was run: as §1

[12] = test system: wheat; experiment: Test B pre/postemergence wheat; assay type: in vivo, Triticum aestivum
How it was run: as §1

[13] = test system: cocklebur; experiment: Test B pre/postemergence cocklebur; assay type: in vivo, Xanthium strumarium
How it was run: as §1

[14] = test system: purple nutsedge; experiment: Test B pre/postemergence purple nutsedge; assay type: in vivo, Cyperus rotundus
How it was run: as §1

[15] = test system: sugar beet; experiment: Test B pre/postemergence sugar beet; assay type: in vivo, Beta vulgaris
How it was run: as §1

[16] = test system: wild oat; experiment: Test B pre/postemergence wild oat; assay type: in vivo, Avena fatua
How it was run: as §1

[17] = Postemergence, Rate 62 g/ha, scale 0 to 10, 0 is no effect, 10 is complete control
[18] = Postemergence, Rate 125 g/ha, scale of 0 to 10 where 0 is no effect and 10 is complete control
[19] = Preemergence, Rate 62 g/ha, scale of 0 to 10 where 0 is no effect and 10 is complete control
[20] = Preemergence, Rate 125 g/ha, scale of 0 to 10 where 0 is no effect and 10 is complete control
[21] = Preemergence, Rate 250 g/ha, scale 0 (no effect) to 10 (complete control)
[22] = Rate 250 g/ha, Postemergence, scale 0 to 10, 0 is no effect, 10 is complete control
[23] = Rate 500 g/ha, Postemergence, scale 0 to 10, 0 is no effect, 10 is complete control
[24] = Preemergence, Rate 500 g/ha, scale of 0 to 10 where 0 is no effect and 10 is complete control

CC(C)N(C(=O)n1oc(=O)n(C[C@H](C)Cl)c1=O)c1ccc(F)cc1F [Compound 714]
Plant response rating, Soybean [1, 17]: 2 | Soybean plant response rating [1, 18]: 4 | Soybean plant response rating [1, 19]: 0 | Plant response rating, Soybean [1, 20]: 0 | Soybean plant response rating [1, 21]: 0 | Soybean plant response rating [1, 22]: 4 | Soybean plant response rating [1, 23]: 3 | Plant response rating, Morningglory [2, 17]: 0 | Morningglory plant response rating [2, 19]: 0 | Plant response rating, Morningglory [2, 20]: 2 | Morningglory plant response rating [2, 21]: 0 | Morningglory plant response rating [2, 22]: 2 | Morningglory plant response rating [2, 23]: 2 | Plant response rating, Crabgrass [3, 17]: 4 | Crabgrass plant response rating [3, 18]: 9 | Crabgrass plant response rating [3, 19]: 10 | Plant response rating, Crabgrass [3, 20]: 10 | Crabgrass plant response rating [3, 21]: 10 | Crabgrass plant response rating [3, 22]: 9 | Crabgrass plant response rating [3, 23]: 9 | Plant response rating, Velvetleaf [4, 17]: 2 | Velvetleaf plant response rating [4, 18]: 2 | Velvetleaf plant response rating [4, 19]: 6 | Plant response rating, Velvetleaf [4, 20]: 5 | Velvetleaf plant response rating [4, 21]: 2 | Velvetleaf plant response rating [4, 22]: 2 | Velvetleaf plant response rating [4, 23]: 3 | Bedstraw plant response rating [5, 18]: 3 | Bedstraw plant response rating [5, 19]: 0 | Plant response rating, Bedstraw [5, 20]: 8 | Bedstraw plant response rating [5, 21]: 9 | Plant response rating, B. signalgrass [6, 17]: 2 | B. signalgrass plant response rating [6, 18]: 2 | B. signalgrass plant response rating [6, 19]: 7 | Plant response rating, B. signalgrass [6, 20]: 9 | B. signalgrass plant response rating [6, 21]: 10 | Plant response rating, B. signalgrass [6, 24]: 10 | B. signalgrass plant response rating [6, 22]: 6 | B. signalgrass plant response rating [6, 23]: 6 | Plant response rating, Blackgrass [7, 17]: 7 | Blackgrass plant response rating [7, 18]: 7 | Blackgrass plant response rating [7, 19]: 7 | Plant response rating, Blackgrass [7, 20]: 8 | Blackgrass plant response rating [7, 21]: 9 | Plant response rating, Blackgrass [7, 24]: 9 | Blackgrass plant response rating [7, 22]: 6 | Blackgrass plant response rating [7, 23]: 7 | Plant response rating, Corn [8, 17]: 0 | Corn plant response rating [8, 18]: 0 | Corn plant response rating [8, 19]: 0 | Plant response rating, Corn [8, 20]: 0 | Corn plant response rating [8, 21]: 5 | Corn plant response rating [8, 22]: 0 | Corn plant response rating [8, 23]: 0 | Plant response rating, Rape [9, 17]: 5 | Rape plant response rating [9, 18]: 5 | Rape plant response rating [9, 19]: 2 | Plant response rating, Rape [9, 20]: 3 | Rape plant response rating [9, 21]: 6 | Rape plant response rating [9, 22]: 8 | Rape plant response rating [9, 23]: 9 | Plant response rating, Redroot pigweed [10, 17]: 5 | Redroot pigweed plant response rating [10, 18]: 8 | Redroot pigweed plant response rating [10, 19]: 10 | Plant response rating, Redroot pigweed [10, 20]: 9 | Redroot pigweed plant response rating [10, 21]: 10 | Redroot pigweed plant response rating [10, 22]: 9 | Redroot pigweed plant response rating [10, 23]: 9 | Plant response rating, Giant foxtail [11, 17]: 6 | Giant foxtail plant response rating [11, 18]: 6 | Giant foxtail plant response rating [11, 19]: 10 | Plant response rating, Giant foxtail [11, 20]: 10 | Giant foxtail plant response rating [11, 21]: 10 | Giant foxtail plant response rating [11, 22]: 7 | Giant foxtail plant response rating [11, 23]: 8 | Plant response rating, Wheat [12, 17]: 0 | Wheat plant response rating [12, 18]: 0 | Wheat plant response rating [12, 19]: 0 | Plant response rating, Wheat [12, 20]: 4 | Wheat plant response rating [12, 21]: 6 | Wheat plant response rating [12, 22]: 3 | Wheat plant response rating [12, 23]: 6 | Plant response rating, Cocklebur [13, 17]: 0 | Cocklebur plant response rating [13, 18]: 2 | Cocklebur plant response rating [13, 19]: 0 | Plant response rating, Cocklebur [13, 20]: 0 | Cocklebur plant response rating [13, 21]: 0 | Plant response rating, Cocklebur [13, 24]: 0 | Cocklebur plant response rating [13, 22]: 2 | Cocklebur plant response rating [13, 23]: 3 | Plant response rating, Nutsedge [14, 17]: 0 | Nutsedge plant response rating [14, 18]: 0 | Nutsedge plant response rating [14, 19]: 0 | Plant response rating, Nutsedge [14, 20]: 0 | Nutsedge plant response rating [14, 21]: 0 | Nutsedge plant response rating [14, 22]: 5 | Nutsedge plant response rating [14, 23]: 5 | Plant response rating, Sugarbeets [15, 17]: 0 | Sugarbeets plant response rating [15, 18]: 6 | Sugarbeets plant response rating [15, 19]: 2 | Plant response rating, Sugarbeets [15, 20]: 4 | Sugarbeets plant response rating [15, 21]: 4 | Sugarbeets plant response rating [15, 22]: 7 | Sugarbeets plant response rating [15, 23]: 7 | Plant response rating, Wild oats [16, 17]: 0 | Wild oats plant response rating [16, 18]: 0 | Wild oats plant response rating [16, 19]: 0 | Plant response rating, Wild oats [16, 20]: 4 | Wild oats plant response rating [16, 21]: 6 | Wild oats plant response rating [16, 22]: 4 | Wild oats plant response rating [16, 23]: 9
